# How the values were obtained:
# Autotaxin (ATX) = target: T1, Autotaxin (ATX) (Homo sapiens, UniProt Q13822); experiment: biochemical choline detection assay for ATX inhibition, LysoPC substrate; conditions: for IC50: mean standard deviation from duplicate experiments
# T1 construct: we added 10 μL of recombinant ATX (2 ng/mL) in a Tris–HCl buffer
# Protocol: All 21 new benzoxaboroles derivatives prepared herein were evaluated for ATX inhibition in vitro using a biochemical choline detection assay, combining elements of assays already described in the literature.
# […] Mother plates with serial dilutions of compounds in pure DMSO were prepared from 10 mM DMSO stock solutions. Storplate-384-deep-well-V plates (Perkin Elmer) were also used for mother plate preparation. Compounds were diluted in a DMSO in a ratio of 1:3. An aliquot of 200 nL of compound solution was transferred from the mother plate to the test plate with a Mosquito nanoliter liquid handling system (TTP labtech). The assay was performed in Spectra-Plate-384 TC, transparent, (Perkin Elmer, Cat#6007658) using a 20 µL assay volume. The total final percentage of DMSO in the test media was 1%. Compounds were tested at 11 consecutive three-fold dilutions starting from 50 µM (final concentrations) in duplicate, covering range of 0.0008–50 μM to determine IC50 values. […] After dispensing of compounds directly to the dry plate, we added 10 μL of recombinant ATX (2 ng/mL) in a Tris–HCl buffer (140 mM NaCl, 1mM MgCl2, 5 mM KCl, 3 mM CaCl2, 1 mg/ml bovin serum albumin (BSA, fatty acid free) and 100 mM Tris–HCl, pH 9). […] The above-described solution with dimethyl sulfoxide but without the test compound was used as a control. LysoPC without ATX was used as a control for the autohydrolysis of LysoPC. After 1.5 h of incubation, 20 μL of stop solution and developer was added {Choline oxidase (1.2 U/mL), Peroxidase (1.2 U/mL), TOOS (2.7 mM), 4-Aminoantipyrine (2.7 mM), and EDTA (50 mM)} to the reaction mixture, and absorbance was measured after 30 min of incubation. The absorbance was measured by using Perkin-Elmer EnVision plate reader (λ = 555 nm). Data were analyzed using GraphPad Prism software. The calculation of IC50 data, curves and quality control (QC) analysis was made by using Excel tools and GraphPadPrism software. Briefly, individual concentration–effect curves were generated by plotting the logarithm of the tested concentration of tested compounds (X) vs. corresponding percentage inhibition values (Y) using a least squares (ordinary) fit. […] QC criteria parameters (Z,’ S:B, ΔmP) were checked for every plate.
# [1] = Chrom logD determination by gradient HPLC (CHI); type: physicochemical; conditions: pH 7.4, Luna C18 column; for chromatographic logD: reversed-phase HPLC, Phenomenex Luna C18 column
# Protocol: clogP values were calculated for all compounds using the Percepta software. Chrom logD was determined experimentally using a procedure described in the supplementary data. Furthermore, the correlation between calculated clogP values and experimentally determined Chrom log D values were explored for molecules containing boron functional groups such as boronic acids and benzoxaboroles.
# Chrom logD values were determined from the following equation: Chrom logD = 0.0857 × CHI − 2 [39]. Chromatographic hydrophobic index (CHI) values were determined from the gradient retention times (RT). These values approximately corresponded to the volume percentage of organic component in the mobile phase when the compound elutes. CHI values were determined at pH 7.4. Chromatograms were obtained using on Agilent 1100 Series liquid chromatography system with an HPLC diode-array detector (DAD) coupled with a Micromass Quattro micro atmosphere pressure ionization (API) mass spectrometer. The column used for analyses was Phenomenex Luna C18 (50 × 3 mm, 5 µm, 100 Å). The column was maintained at 25 °C. The flow rate was 1.0 mL/min. The mobile phase was composed of 50 mM ammonium acetate in water at pH 7.4 (solvent A) and acetonitrile (solvent B). The solvent gradient condition was initially 0.5% B, and then it increased linearly to 100% B over 3.0 min, remaining at 100% B for 0.5 min, then decreasing linearly to 0% B over 0.2 min followed by an equilibration period of 1.3 min prior to the next injection. The total experimental duration was 5 min. Injection volume was 2.0 µl. Samples temperature was maintained at 15 °C in the autosampler chamber. A group of ten standard compounds having different CHI values was used for calibration of RP-HPLC [40].
# [2] = metabolic stability in human liver microsomes; type: in vitro ADME
# Protocol: (§1) Metabolic stability was assessed in rat and human liver microsomes, with testosterone and propranolol as positive controls. All compounds, at a final concentration of 1 μM (0.03% DMSO), were incubated in a phosphate buffer (50 mM, pH 7.4) for 60 min at 37 °C, together with liver microsomes in the absence and presence of NADPH generating system (nicotinamide adenine dinucleotide phosphate (NADP, 2 mM), glucose-6-phosphate (20 mM), glucose-6-phosphate dehydrogenase (6U) and magnesium chloride (2 mM)). Aliquots were taken at different time points (0, 10, 20, 30, 45 and 60 min), followed by reaction termination by addition of CH3CN:CH3OH 2:1 v/v, containing diclofenac as internal standard (IS). Samples were then centrifuged (at 2000 rpm at 4 °C for 30 min), and resulting supernatants were subjected to LC/MS/MS analysis. The in vitro half-life was calculated in GraphPadPrism software from % remaining vs. time regression using non-linear regression fit. In vitro intrinsic clearance, expressed as mL/min/g liver, was determined from in vitro half-life and normalized for the protein concentration in the incubation mixture, assuming a 52.5 mg/g liver.
# [3] = metabolic stability in rat liver microsomes; type: in vitro ADME
# Protocol: as §1
# [4] = in vitro plasma stability, human plasma; type: in vitro ADME; conditions: after 4 h
# Protocol: (§2) The in vitro plasma stability of the test compounds was studied in human and rat plasma with propranolol, benflorex, and eucatropine as control substances. All compounds at final concentrations of 5 μM (0.5% DMSO) were incubated in a phosphate buffer (50 mM, pH 7.4) for 4 h at 37 °C together with plasma. Aliquots were taken at different time points (0, 30, 120 min and 4 h), followed by reaction termination by the addition of CH3CN:CH3OH 2:1 v/v., which contained diclofenac and warfarin as internal standards (IS). Samples were then centrifuged (at 1600 rpm at 4 °C for 30 min), and the resulting supernatants were subjected to LC/MS/MS analysis. Results are expressed as % remaining.
# [5] = in vitro plasma stability, rat plasma; type: in vitro ADME; conditions: after 4 h
# Protocol: as §2
# [6] = kinetic solubility, turbidimetric method; type: physicochemical; conditions: 37 °C, pH 7.4, aqueous buffer, kinetic from dmso stock, Solubility (kinetic solubility range)
# Protocol: Turbidimetric solubility allows for a rapid determination of kinetic solubility by using small amounts of the test compound. Assay controls were α-naphtoflavone (low solubility) and sulfaphenazole (expected solubility >100µM). DMSO stock solutions (10 mM) of each compound were first serially diluted 1 in 3 in DMSO and then spiked into an aqueous buffer (100 mM PBS), resulting in 5 following final concentration: 100, 30, 10, 3 and 1 µM (each concentration was tested in duplicate). […] Compound samples were compared to a solvent control in an aqueous buffer (DMSO 1% final concentration), and a significant increase of sample absorbance was considered to have occurred when the absorbance reached a 3-fold standard deviation of the average DMSO absorbance. The calculation of solubility range data was made by Excel tool software. Results are expressed as an estimated solubility range.
# [7] = choline release assay using as a substrate
# [8] = choline release assay using LPC C16:0 as a substrate
SMILES,IC50 (Autotaxin (ATX); [7]),chromatographic logD [1],other results
"O=C(OCc1cc(Cl)cc(Cl)c1)N1CCN(C2CCN(C(=O)c3ccc4c(c3)COB4O)C2)CC1 (centres unmarked) [Compound 32, (3,5-dichlorophenyl)methyl 4-[1-(1-hydroxy-3H-2,1-benzoxaborole-5-carbonyl)pyrrolidin-3-yl]piperazine-1-carboxylate]",0.37 ± 0.35 µM,4.38,"ATX inhibition, range of activity (Autotaxin (ATX); in words): nanomolar range"
O=C(OCc1cc(Cl)cc(Cl)c1)N1CCN(C2CCN(C(=O)c3cccc4c3COB4O)C2)CC1 (centres unmarked) [Compound 33],,,IC50 (Autotaxin (ATX); [8]): 8 ± 2.58 µM; Chrom logD [1]: 5.40
"O=C(OCc1cc(Cl)cc(Cl)c1)N1CCN(C2CN(C(=O)c3ccc4c(c3)COB4O)C2)CC1 [Compound 38, (3,5-dichlorophenyl)methyl 4-[1-(1-hydroxy-3H-2,1-benzoxaborole-5-carbonyl)azetidin-3-yl]piperazine-1-carboxylate]",2 ± 1.73 µM,4.46,"LMS: predicted in vivo hepatic clearance, human [2]: 79 %LBF; LMS: predicted in vivo hepatic clearance, rat [3]: 82 %LBF; PS (plasma stability), human [4]: 79.1 %remaining; PS (plasma stability), rat [5]: 60.1 %remaining; solubility kinetic at 1 h [6]: 30 to 100 µM"
"O=C(OCc1ccccc1)N1CCN(C2CCN(C(=O)c3ccc4c(c3)B(O)OC4)C2)CC1 (centres unmarked) [Compound 39, benzyl 4-[1-(1-hydroxy-3H-2,1-benzoxaborole-6-carbonyl)pyrrolidin-3-yl]piperazine-1-carboxylate]",> 50 µM,3.05,
"O=C(OCc1ccccc1)N1CCN(C2CCN(C(=O)c3ccc4c(c3)COB4O)C2)CC1 (centres unmarked) [Compound 40, benzyl 4-[1-(1-hydroxy-3H-2,1-benzoxaborole-5-carbonyl)pyrrolidin-3-yl]piperazine-1-carboxylate]",> 50 µM,2.9,
"O=C(OCc1ccccc1)N1CCN(C2CN(C(=O)c3ccc4c(c3)B(O)OC4)C2)CC1 [Compound 41, benzyl 4-[1-(1-hydroxy-3H-2,1-benzoxaborole-6-carbonyl)azetidin-3-yl]piperazine-1-carboxylate]",23 ± 1.18 µM,3.07,
"O=C(OCc1ccccc1)N1CCN(C2CN(C(=O)c3ccc4c(c3)COB4O)C2)CC1 [Compound 42, benzyl 4-[1-(1-hydroxy-3H-2,1-benzoxaborole-5-carbonyl)azetidin-3-yl]piperazine-1-carboxylate]",> 50 µM,2.9,
"Cc1cc(C)cc(COC(=O)N2CCN(C3CCN(C(=O)c4ccc5c(c4)COB5O)C3)CC2)c1 (centres unmarked) [Compound 44, (3,5-dimethylphenyl)methyl 4-[1-(1-hydroxy-3H-2,1-benzoxaborole-5-carbonyl)pyrrolidin-3-yl]piperazine-1-carboxylate]",4.7 ± 1.14 µM,3.99,
"Cc1cc(C)cc(COC(=O)N2CCN(C3CN(C(=O)c4ccc5c(c4)COB5O)C3)CC2)c1 [Compound 46, (3,5-dimethylphenyl)methyl 4-[1-(1-hydroxy-3H-2,1-benzoxaborole-5-carbonyl)azetidin-3-yl]piperazine-1-carboxylate]",5.1 ± 2.75 µM,4.01,
"COc1cc(COC(=O)N2CCN(C3CCN(C(=O)c4ccc5c(c4)B(O)OC5)C3)CC2)cc(OC)c1 (centres unmarked) [Compound 47, (3,5-dimethoxyphenyl)methyl 4-[1-(1-hydroxy-3H-2,1-benzoxaborole-6-carbonyl)pyrrolidin-3-yl]piperazine-1-carboxylate]",14 ± 5.5 µM,3.19,
"COc1cc(COC(=O)N2CCN(C3CCN(C(=O)c4ccc5c(c4)COB5O)C3)CC2)cc(OC)c1 (centres unmarked) [Compound 48, (3,5-dimethoxyphenyl)methyl 4-[1-(1-hydroxy-3H-2,1-benzoxaborole-5-carbonyl)pyrrolidin-3-yl]piperazine-1-carboxylate]",15 ± 6.07 µM,3.03,
"COc1cc(COC(=O)N2CCN(C3CN(C(=O)c4ccc5c(c4)B(O)OC5)C3)CC2)cc(OC)c1 [Compound 49, (3,5-dimethoxyphenyl)methyl 4-[1-(1-hydroxy-3H-2,1-benzoxaborole-6-carbonyl)azetidin-3-yl]piperazine-1-carboxylate]",11 ± 4.59 µM,3.21,
COc1cc(COC(=O)N2CCN(C3CN(C(=O)c4ccc5c(c4)COB5O)C3)CC2)cc(OC)c1 [Compound 50],,,IC50 (Autotaxin (ATX); [8]): 13 ± 3.26 µM; Chrom logD [1]: 3.07
